Entries after “also recorded” stand apart in the source; their conditions may differ.
Experiments:
rTRPV1(Y511G) = rTRPV1(Y511G) (Rattus norvegicus, UniProt O35433, Y511G); details: 300 μM; VBS domain mutated
Method: Averaged (n=30 cells) ratiometric calcium responses of HEK293T cells expressing rat TRPV1 (rTRPV1), as a function of time. Application of different SAVA (as indicated; 300 μM; yellow bar) was followed by capsaicin (CAP; 5 μM; red bar). […] Same as B, but recorded from HEK293T cells expressing rTRPV1(Y511G) in which VBS domain is mutated. […] D. Superimposed capsaicin-(1 μM; grey line) and SAVA-(compound 6 in B; 300 μM; black line)-induced currents (Vholding=−40 mV) recorded in whole cell configuration from HEK293T cells expressing the rTRPV1. Recording were done on cells with similar TRPV1 expressing levels (determined by the initial response to pH 5.5). […] E. Current-clamp recording (I=0) in the whole cell configuration from small-diameter (C-fiber) rat TG neurons (P2 old pup).
To verify, that the evoked response of our TRPV1-positive compounds is through the Vanilloid-binding site (VBS), we analyzed their activation profile on TRPV1(Y511 G) construct.
Next, the new scaffolds-evoked TRPV1 currents were analyzed using the voltage-clamp whole-cell configuration of the patch-clamp technique on HEK293T cells stably transfected with the rTRPV1 gene.

[1] = system: small-diameter (C-fiber) rat TG neurons; test: Current-clamp whole-cell recording of membrane potential in dissociated TG sensory neurons; type: cell-based; details: capsaicin 0.2 μM; current clamp I=0; P2 rat TG neurons
From the text: In dissociated sensory neurons from the trigeminal ganglion (TG) of P2 rat, the inventors have recorded the membrane potential following the application of the different molecules, using current-clamp mode in the whole-cell configuration. […] In contrast, the compound of the invention have evoked slow (in comparison to capsaicin), ˜20 mV depolarization, with no action potential firing (FIG. 16E, upper trace).

Chain of rTRPV1(Y511G) (O35433 whole entry Y511G, the tested form may be a part): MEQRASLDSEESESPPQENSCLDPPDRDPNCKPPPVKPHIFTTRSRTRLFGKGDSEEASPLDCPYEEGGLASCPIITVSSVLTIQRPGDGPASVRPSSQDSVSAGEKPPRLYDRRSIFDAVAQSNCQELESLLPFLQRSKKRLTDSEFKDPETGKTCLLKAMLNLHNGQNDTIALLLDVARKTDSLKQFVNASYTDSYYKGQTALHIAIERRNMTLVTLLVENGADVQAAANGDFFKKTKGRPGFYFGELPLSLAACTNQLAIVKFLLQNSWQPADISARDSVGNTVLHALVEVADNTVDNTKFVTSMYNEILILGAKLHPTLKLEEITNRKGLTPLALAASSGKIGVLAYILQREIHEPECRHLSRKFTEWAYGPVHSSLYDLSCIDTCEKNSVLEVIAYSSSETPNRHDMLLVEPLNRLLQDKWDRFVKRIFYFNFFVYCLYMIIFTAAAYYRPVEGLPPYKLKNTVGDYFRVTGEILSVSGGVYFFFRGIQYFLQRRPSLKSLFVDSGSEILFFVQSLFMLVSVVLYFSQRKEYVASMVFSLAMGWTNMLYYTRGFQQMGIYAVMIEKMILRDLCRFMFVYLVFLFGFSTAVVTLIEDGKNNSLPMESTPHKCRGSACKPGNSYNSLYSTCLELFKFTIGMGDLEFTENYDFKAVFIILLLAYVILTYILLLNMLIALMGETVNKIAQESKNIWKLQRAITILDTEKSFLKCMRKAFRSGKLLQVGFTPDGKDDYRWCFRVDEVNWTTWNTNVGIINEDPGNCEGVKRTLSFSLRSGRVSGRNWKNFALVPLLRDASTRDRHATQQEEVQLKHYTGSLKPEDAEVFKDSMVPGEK

Compound	calcium response of cells expressing mutant rTRPV1(Y511G) (rTRPV1(Y511G))	depolarization and action potential firing [1]
NCCOB(c1ccccc1)c1ccccc1 [2-APB, 2-aminoethoxydiphenyl borate]	responded	–
COc1cc(CNC(=O)CCCC/C=C/C(C)C)ccc1O [capsaicin, Capsaicin]	–	pronounced depolarization and burst of action potentials, followed by depolarization block; also recorded: robust depolarization with burst of action potentials followed by depolarization block
